For this assay, the target named is H3 receptor (Rattus norvegicus, UniProt Q9QYN8). The assay can be described thus: H3 receptor binding, (3H)-N-α-methylhistamine displacement in rat cortical membranes. The note with it: male Sprague-Dawley rat brain cortical membranes, 30 minutes at 25° C., Cheng-Prusoff, geometric mean values of 2-10 separate experiments.
Sequence of H3 receptor (Q9QYN8 1-397 isoform Q9QYN8-3): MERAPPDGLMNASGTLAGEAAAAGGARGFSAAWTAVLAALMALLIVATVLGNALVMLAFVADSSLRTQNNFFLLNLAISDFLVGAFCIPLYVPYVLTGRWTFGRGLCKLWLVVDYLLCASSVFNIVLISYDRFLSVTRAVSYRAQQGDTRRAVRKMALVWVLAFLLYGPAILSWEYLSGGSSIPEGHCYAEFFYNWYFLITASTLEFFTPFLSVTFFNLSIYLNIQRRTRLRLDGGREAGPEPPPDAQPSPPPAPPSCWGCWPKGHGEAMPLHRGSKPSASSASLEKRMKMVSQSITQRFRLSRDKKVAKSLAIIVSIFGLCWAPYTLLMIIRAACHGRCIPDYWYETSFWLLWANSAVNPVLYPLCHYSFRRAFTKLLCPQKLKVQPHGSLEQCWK
What is called Ki is the dissociation constant of the complex between target and ligand, obtained from inhibition or displacement. A high value points to weaker binding. `C[C@@H](N)C(=O)N1CCN(CCCOc2ccc(C(=O)C3CC3)cc2)CC1` [Example 138, (4-(3-(4-((2R)-2-aminopropanoyl)-1-piperazinyl)propoxy)phenyl)(cyclopropyl)methanone] gave a Ki of 0.996 nM.
The result for `CC(C)N[C@H](C)C(=O)N1CCN(CCCOc2ccc(C(=O)C3CC3)cc2)CC1` [Example 139, Cyclopropyl(4-(3-(4-((2R)-2-(isopropylamino)propanoyl)-1-piperazinyl)propoxy)phenyl)methanone] reads 7.29 nM.
The result for `C[C@@H](NC(=O)[C@@H]1CCCO1)C(=O)N1CCN(CCCOc2ccc(-c3noc(-c4ccccc4)n3)c(F)c2)CC1` [Example 163, (2S)-N-[(1R)-2-(4-{3-[3-fluoro-4-(5-phenyl-1,2,4-oxadiazol-3-yl)phenoxy]propyl}-1-piperazinyl)-1-methyl-2-oxoethyl]tetrahydro-2-furancarboxamide] reads 8.35 nM; that for `COc1ccc(OC)c(C(=O)N[C@H](C)C(=O)N2CCN(CCCOc3ccc(C(=O)C4CC4)cc3)CC2)c1` [Example 197, N-[(1R)-2-(4-{3-[4-(cyclopropylcarbonyl)phenoxy]propyl}-1-piperazinyl)-1-methyl-2-oxoethyl]-2,5-dimethoxybenzamide], 3.1 nM.
Turning to `C[C@@H](NC(=O)c1ccco1)C(=O)N1CCCN(CCCOc2ccc(-c3noc(-c4ccccc4)n3)c(F)c2)CC1` [Example 151, N-[(1R)-2-(4-{3-[3-fluoro-4-(5-phenyl-1,2,4-oxadiazol-3-yl)phenoxy]propyl}-1,4-diazepan-1-yl)-1-methyl-2-oxoethyl]-2-furamide], the Ki stood at 4.29 nM.
The result for `CC(C)Oc1ccc(C(=O)N[C@H](C)C(=O)N2CCN(CCCOc3ccc(-c4noc(CC5CCCC5)n4)c(F)c3)CC2)cc1` [Example 184, N-{(1R)-2-[4-(3-{4-[5-(cyclopentylmethyl)-1,2,4-oxadiazol-3-yl]-3-fluorophenoxy}propyl)-1-piperazinyl]-1-methyl-2-oxoethyl}-4-isopropoxybenzamide] reads 10.5 nM; that for `CCCCCC(=O)c1ccc(OCCCN2CCN(C(=O)[C@H](N)CO)CC2)cc1` [Example 52, 1-(4-(3-(4-((2R)-2-amino-3-hydroxypropanoyl)-1-piperazinyl)propoxy)phenyl)-1-hexanone], 8.39 nM.
The result for `C[C@@H](NC(=O)c1ccco1)C(=O)N1CCN(CCCOc2ccc(-c3noc(-c4ccccc4)n3)c(F)c2)CC1` [Example 161, N-[(1R)-2-(4-{3-[3-fluoro-4-(5-phenyl-1,2,4-oxadiazol-3-yl)phenoxy]propyl}-1-piperazinyl)-1-methyl-2-oxoethyl]-2-furamide] reads 2.41 nM; that for `C[C@@H](NC(=O)c1ccc(F)cc1)C(=O)N1CCN(CCCOc2ccc(-c3noc(CC4CCCC4)n3)c(F)c2)CC1` [Example 174, N-{(1R)-2-[4-(3-{4-[5-(cyclopentylmethyl)-1,2,4-oxadiazol-3-yl]-3-fluorophenoxy}propyl)-1-piperazinyl]-1-methyl-2-oxoethyl}-4-fluorobenzamide], 0.81 nM.
In turn, `C[C@@H](NC(=O)c1ccc(Cl)c(Cl)c1)C(=O)N1CCN(CCCOc2ccc(-c3noc(CC4CCCC4)n3)c(F)c2)CC1` [Example 176, 3,4-dichloro-N-{(1R)-2-[4-(3-{4-[5-(cyclopentylmethyl)-1,2,4-oxadiazol-3-yl]-3-fluorophenoxy}propyl)-1-piperazinyl]-1-methyl-2-oxoethyl}benzamide] registered a Ki of 1.22 nM.
Consider `CCCc1nc(-c2ccc(OCCCN3CCCN(C(=O)[C@@H](C)NC(=O)c4ccco4)CC3)cc2F)no1` [Example 141, N-[(1R)-2-(4-{3-[3-fluoro-4-(5-propyl-1,2,4-oxadiazol-3-yl)phenoxy]propyl}-1,4-diazepan-1-yl)-1-methyl-2-oxoethyl]-2-furamide], for which the affinity corresponds to a Ki of 2.34 nM.
Consider `Cc1cc(C)cc(C(=O)N[C@H](C)C(=O)N2CCN(CCCOc3ccc(C(=O)C4CC4)cc3)CC2)c1` [Example 196, N-[(1R)-2-(4-{3-[4-(cyclopropylcarbonyl)phenoxy]propyl}-1-piperazinyl)-1-methyl-2-oxoethyl]-3,5-dimethylbenzamide], for which the affinity corresponds to a Ki of 2.08 nM.
The compound `CC(C)OCc1nc(-c2ccc(OCCCN3CCCN(C(=O)[C@@H](C)NC(=O)c4ccco4)CC3)cc2F)no1` [Example 143, N-{(1R)-2-[4-(3-{3-fluoro-4-[5-(isopropoxymethyl)-1,2,4-oxadiazol-3-yl]phenoxy}propyl)-1,4-diazepan-1-yl]-1-methyl-2-oxoethyl}-2-furamide] displayed a Ki of 4 nM.
The result for `C[C@@H](NC(=O)c1ccco1)C(=O)N1CCCN(CCCOc2ccc(-c3noc(-c4nccs4)n3)c(F)c2)CC1` [Example 149, N-{(1R)-2-[4-(3-{3-fluoro-4-[5-(1,3-thiazol-2-yl)-1,2,4-oxadiazol-3-yl]phenoxy}propyl)-1,4-diazepan-1-yl]-1-methyl-2-oxoethyl}-2-furamide] reads 6.24 nM; that for `COc1ccc(C(=O)N[C@H](C)C(=O)N2CCN(CCCOc3ccc(-c4noc(CC5CCCC5)n4)c(F)c3)CC2)cc1F` [Example 185, N-{(1R)-2-[4-(3-{4-[5-(cyclopentylmethyl)-1,2,4-oxadiazol-3-yl]-3-fluorophenoxy}propyl)-1-piperazinyl]-1-methyl-2-oxoethyl}-3-fluoro-4-methoxybenzamide], 3.28 nM; that for `C[C@@H](NC(=O)c1ccco1)C(=O)N1CCCN(CCCOc2ccc(-c3noc(-c4ccoc4)n3)c(F)c2)CC1` [Example 147, N-{(1R)-2-[4-(3-{3-fluoro-4-[5-(3-furyl)-1,2,4-oxadiazol-3-yl]phenoxy}propyl)-1,4-diazepan-1-yl]-1-methyl-2-oxoethyl}-2-furamide], 1.68 nM.
`C[C@H](N)C(=O)N1CCCN(CCCOc2ccc(C(=O)C3CC3)cc2)CC1` [Example 117, (4-(3-(4-((2S)-2-aminopropanoyl)-1,4-diazepan-1-yl)propoxy)phenyl)(cyclopropyl)methanone] came in with a Ki of 1.07 nM.
Consider `C[C@@H](NC(=O)c1ccc(Oc2ccccc2)cc1)C(=O)N1CCN(CCCOc2ccc(C(=O)C3CC3)cc2)CC1` [Example 195], for which the affinity, expressed as Ki, was 1.37 nM.
The result for `O=C(c1ccc(OCCCN2CCCN(C(=O)C[C@@H]3CCCN3)CC2)cc1)C1CC1` [Example 124, Cyclopropyl(4-(3-(4-((2S)-pyrrolidinylacetyl)-1,4-diazepan-1-yl)propoxy)phenyl)methanone] reads 4.03 nM; that for `C[C@@H](NC(=O)c1ccc(C#N)cc1)C(=O)N1CCCN(CCCOc2ccc(-c3noc(CC4CCCC4)n3)c(F)c2)CC1` [Example 179, 4′-cyano-N-{(1R)-2-[4-(3-{4-[5-(cyclopentylmethyl)-1,2,4-oxadiazol-3-yl]-3-fluorophenoxy}propyl)-1,4-diazepan-1-yl]-1-methyl-2-oxoethyl}benzamide], 1.5 nM; that for `O=C(NCCC(=O)N1CCN(CCCOc2ccc(-c3noc(-c4ccccc4)n3)c(F)c2)CC1)C1CCCC1` [Example 158, N-[3-(4-{3-[3-fluoro-4-(5-phenyl-1,2,4-oxadiazol-3-yl)phenoxy]propyl}-1-piperazinyl)-3-oxopropyl]cyclopentanecarboxamide], 11.7 nM.
The compound `CCOC(=O)c1nc(-c2ccc(OCCCN3CCN(C(=O)[C@@H](C)NC(=O)c4cccs4)CC3)cc2F)no1` [Example 191, Ethyl 3-{2-fluoro-4-[3-(4-{(2R)-2-[(2-thienylcarbonyl)amino]propanoyl}-1-piperazinyl)propoxy]phenyl}-1,2,4-oxadiazole-5-carboxylate] returned a Ki of 15 nM.
The result for `C[C@H](CCOc1ccc(C(=O)C2CC2)cc1)N1CCN(C(=O)[C@@H](C)NC(=O)OC(C)(C)C)CC1` [Example 61, Tert-butyl (1R)-2-(4-((1R)-3-(4-(cyclopropylcarbonyl)phenoxy)-1-methylpropyl)-1-piperazinyl)-1-methyl-2-oxoethylcarbamate] reads 0.74 nM.
As for `COc1ccc(-c2nc(-c3ccc(OCCCN4CCN(C(=O)[C@@H](C)NC(=O)c5cccs5)CC4)cc3F)no2)cc1` [Example 198, N-{(1R)-2-[4-(3-{3-fluoro-4-[5-(4-methoxyphenyl)-1,2,4-oxadiazol-3-yl]phenoxy}propyl)-1-piperazinyl]-1-methyl-2-oxoethyl}-2-thiophenecarboxamide], the figure is 25.9 nM; as for `Cc1cc(C)c(C(=O)NCCC(=O)N2CCN(CCCOc3ccc(-c4noc(-c5ccccc5)n4)c(F)c3)CC2)s1` [Example 156, N-[3-(4-{3-[3-fluoro-4-(5-phenyl-1,2,4-oxadiazol-3-yl)phenoxy]propyl}-1-piperazinyl)-3-oxopropyl]-3,5-dimethyl-2-thiophenecarboxamide], 13.7 nM.
As for `C[C@@H](NC(=O)c1ccco1)C(=O)N1CCN(CCCOc2ccc(C(=O)C3CC3)cc2)CC1` [Example 126, N-((1R)-2-(4-(3-(4-(cyclopropylcarbonyl)phenoxy)propyl)-1-piperazinyl)-1-methyl-2-oxoethyl)-2-furamide], the figure is 0.742 nM; as for `Cc1ccc(C(=O)N[C@H](C)C(=O)N2CCN(CCCOc3ccc(-c4noc(CC5CCCC5)n4)c(F)c3)CC2)cc1` [Example 173, N-{(1R)-2-[4-(3-{4-[5-(cyclopentylmethyl)-1,2,4-oxadiazol-3-yl]-3-fluorophenoxy}propyl)-1-piperazinyl]-1-methyl-2-oxoethyl}-4-methylbenzamide], 1.56 nM.
In the case of `C[C@@H](NC(=O)OC(C)(C)C)C(=O)N1CCN(CCCOc2ccc(C(=O)C3CC3)cc2)CC1` [Example 64, Tert-butyl (1R)-2-(4-(3-(4-(cyclopropylcarbonyl)phenoxy)propyl)-1-piperazinyl)-1-methyl-2-oxoethylcarbamate], the Ki stood at 2.07 nM.
“Tert-butyl (1R)-1-benzyl-2-(4-(3-(4-(cyclopropylcarbonyl)phenoxy)propyl)-1-piperazinyl)-2-oxoethylcarbamate [Example 79]” showed a Ki of 4.78 nM.
As for `C[C@@H](NC(=O)CCN1CCOCC1)C(=O)N1CCN(CCCOc2ccc(-c3noc(CC4CCCC4)n3)c(F)c2)CC1` [Example 172, N-{(1R)-2-[4-(3-{4-[5-(cyclopentylmethyl)-1,2,4-oxadiazol-3-yl]-3-fluorophenoxy}propyl)-1-piperazinyl]-1-methyl-2-oxoethyl}-3-(4-morpholinyl)propanamide], the affinity, expressed as Ki, was 1.22 nM.

For the origin of these results see US6559140B2 (Abbott Laboratories, priority 2000, dated 2003).
